Patent US8450305B2, “Macrocyclic compounds useful as inhibitors of kinases and HSP90” (Universite de Strasbourg, priority 2006, dated 2013)

Molecular target: T1, EPHB4 (Homo sapiens, UniProt P54760)
T1 construct: host or cells: Sf9 insect cells (baculovirus)
T1 sequence (P54760 16-987): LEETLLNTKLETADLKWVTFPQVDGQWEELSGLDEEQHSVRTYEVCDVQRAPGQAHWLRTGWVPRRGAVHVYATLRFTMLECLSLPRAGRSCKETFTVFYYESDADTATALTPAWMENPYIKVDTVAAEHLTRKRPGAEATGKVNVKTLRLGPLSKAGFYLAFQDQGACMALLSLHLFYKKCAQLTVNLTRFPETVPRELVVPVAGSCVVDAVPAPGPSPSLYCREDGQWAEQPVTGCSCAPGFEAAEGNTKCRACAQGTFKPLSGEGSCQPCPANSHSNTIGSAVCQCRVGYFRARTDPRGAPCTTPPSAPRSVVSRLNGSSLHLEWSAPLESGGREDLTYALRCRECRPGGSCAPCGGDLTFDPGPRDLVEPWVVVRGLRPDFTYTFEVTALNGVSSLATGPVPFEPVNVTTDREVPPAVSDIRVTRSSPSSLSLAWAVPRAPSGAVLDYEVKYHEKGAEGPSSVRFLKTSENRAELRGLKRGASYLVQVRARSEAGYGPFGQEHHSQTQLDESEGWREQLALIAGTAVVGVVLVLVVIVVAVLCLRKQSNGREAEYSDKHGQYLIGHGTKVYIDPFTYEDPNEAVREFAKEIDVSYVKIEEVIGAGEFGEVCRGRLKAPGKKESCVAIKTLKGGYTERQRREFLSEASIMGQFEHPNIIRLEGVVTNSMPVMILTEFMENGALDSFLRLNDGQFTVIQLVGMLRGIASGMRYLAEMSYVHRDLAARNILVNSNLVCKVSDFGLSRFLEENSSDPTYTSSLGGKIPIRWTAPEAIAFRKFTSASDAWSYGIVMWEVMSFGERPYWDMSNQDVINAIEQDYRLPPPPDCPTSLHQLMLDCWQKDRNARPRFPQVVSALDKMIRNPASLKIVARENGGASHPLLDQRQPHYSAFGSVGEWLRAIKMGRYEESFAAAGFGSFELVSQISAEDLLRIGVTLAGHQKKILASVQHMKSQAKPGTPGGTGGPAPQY
Test: Radiometric protein kinase assay, EPHB4
Type: biochemical
Details: 1 μM ATP; read-out: Inhibitory activity (IC50:μM) EPHB4
Excerpt: All protein kinases were expressed in Sf9 insect cells as human recombinant GST-fusion proteins or His-tagged proteins by means of the baculovirus expression system. Kinases were purified by affinity chromatography using either GSH-agarose (Sigma) or Ni-NTH-agarose (Qiagen). The purity of each kinase was checked by SDS-PAGE/silver staining and the identity of each kinase was verified by western blot analysis with kinase specific antibodies or by mass spectroscopy.
A radiometric protein kinase assay (^33PanQinase® Activity Assay) was used for measuring the kinase activity of the 24 protein kinases. All kinase assays were performed in 96-well FlashPlates™ from Perkin Elmer (Boston, Mass., USA) in a 50 μl reaction volume. The reaction cocktail was pipetted in 4 steps in the following order: • 20 μl of assay buffer • 5 μl of ATP solution (in H2O) • 5 μl of test compound (in 10% DMSO) • 10 μl of substrate/10 […] of enzyme solution (premixed)
The assay for all enzymes contained 60 mM HEPES-NaOH, pH 7.5, 3 mM MgCl2, 3 mM MnCl2, 3 μM Na-orthovanadate, 1.2 mM DTT, 50 μg/ml PEG20000, 1 μM [γ-^33P]-ATP (approx. 5×10^05 cpm per well).
For the 24 kinase assays, the following amounts of enzyme and substrate were used per well:
The reaction cocktails were incubated at 30° C. for 80 minutes. The reaction was stopped with 50 μl of 2% (v/v) H3PO4, plates were aspirated and washed two times with 200 μl of 0.9% (w/v) NaCl or 200 μl H2O. Incorporation of ^33Pi was determined with a microplate scintillation counter (Microbeta Trilux, Wallac).
The median value of the counts in column 1 (n=8) of each assay plate was defined as “low control”. This value reflects unspecific binding of radioactivity to the plate in the absence of a protein kinase but in the presence of the substrate. The median value of the counts in column 7 of each assay plate (n=8) was taken as the “high control”, i.e. full activity in the absence of any inhibitor. The difference between high and low control was taken as 100% activity.
As part of the data evaluation the low control value from a particular plate was subtracted from the high control value as well as from all 80 “compound values” of the corresponding plate. The residual activity (in %) for each well of a particular plate was calculated by using the following formula: Res. Activity (%)=100×[(cpm of compound−low control)/(high control−low control)]
The residual activities for each concentration and the compound IC50 values were calculated using Quattro Workflow V2.1.0.0 (Quattro Research GmbH, Munich, Germany; www.quattro-research.com). The model used was “Sigmoidal response (variable slope)” with parameters “top” fixed at 100% and “bottom” at 0%.

Row | IC50 | SMILES
1 | 16 µM | COC1CC/C=C/C[C@H](c2ccccc2)OC(=O)c2c(O)cc(O)c(Cl)c2CC(=O)C1 (stereo partly shown) [A-2]
2 | 40 µM | O=C1/C=C/CCC2OC2C[C@@H](Cc2ccccc2)OC(=O)c2c(O)cc(O)cc2C1 (stereo partly shown) [A-6]
3 | 40 µM | O=C1Cc2c(Cl)c(O)cc(O)c2C(=O)O[C@H](c2ccccc2)C/C=C/CCC(Cl)C1 (stereo partly shown) [A-3]
4 | 49 µM | O=C1/C=C/CCC2OC2C[C@H](c2ccccc2)OC(=O)c2c(O)cc(O)c(Cl)c2C1 (stereo partly shown) [A-5]
